Reference: patent publication US4232017A, “Treatment of psychic disorders and inflammation with fused isoquinolines” (Gruppo Lepetit S.p.A., priority 1978, dated 1980)
Where two headings read alike, the source gives them in different places.

What was measured:
[1] = tested on: carrageenin induced edema in rats; experiment: carrageenin induced edema test (Winter et al.); type: in vivo; details: for significant reduction of the edema over the control: oral, about 1/5 to about 1/10 of the LD50
Description: As stated above, the compounds of the invention show also a remarkable antiinflammatory action, which was ascertained by means of the "carrageenin induced edema test" in rats. Said test was performed according to the operative scheme proposed by C. A. Winter et al., Proc., Soc. Exptl.

[2] = Acute toxicity (LD50) in mice, i.p.; details: mouse, in vivo, ip
Description: (§1) Moreover, they display a considerably low toxicity as, generally, their LD50 values are never lower than 600 mg/Kg when given i.p. and never lower than 1000 mg/Kg when given orally to mice.

[3] = Acute toxicity (LD50) in mice, oral; details: mouse, in vivo, p.o.
Description: as §1

rats = experiment: pole climbing avoidance test (antianxiety activity; Maffii); type: in vivo; details: for responders at 60 mg/kg / responders at 15 mg/kg / responders at 30 mg/kg / responders at 10 mg/kg: Rattus norvegicus, ip; for responders at 60 mg/kg: 60 mg/Kg i.p.; for responders at 15 mg/kg: 15 mg/Kg i.p.; for responders at 30 mg/kg: 30 mg/Kg i.p.; for influence on the CR and the UR: i.p., about 15 to about 60 mg/Kg; for responders at 10 mg/kg: 10 mg/Kg i.p.
Description: The CNS-depressant activity in mammals was investigated by means of the general psychophysic screening method, as described by S. Irwin in Psychopharmacologia (Berl.), 13, 222-257, 1968. […] It is to be noted that the above parameters are directly connected with sedative, hypnotic and miorelaxing properties. The antianxiety activity of the compounds of the invention was investigated by means of the "pole climbing avoidance test", performed as described by G. Maffii in Journ. Pharm. Pharmacol., 11, 129, 1959, wherein a conditioned animal (generally a rat) is deconditioned i.e., is brought to its normal psychic behavior by administration of a suitable amount of the compound to be tested. According to G. Maffii, an inhibition of the secondary conditioned response (CR2) without a contemporary or coupled with a not significant inhibition of the primary conditioned response (CR) and the unconditioned response (UR) is a clear indication of an antianxiety effect since these last two parameters are connected with sedative and hypnotic properties.

[4] = read-out: CR2 (secondary conditioned response), Decond./Conditioned
[5] = read-out: CR (primary conditioned response), Decond./Conditioned
[6] = read-out: UR (unconditioned response), Decond./Conditioned

Row | Structure (SMILES) | % Decrease of the induced edema ([1]; 50 mg/kg p.o.) [%] | % Decrease of the induced edema ([1]; 100 mg/kg p.o.) [%] | % Decrease of the induced edema ([1]; 200 mg/kg p.o.) [%] | significant reduction of the edema over the control [1] [%] | LD50 [2] [mg/kg] | LD50 [3] [mg/kg] | responders at 60 mg/kg (rats; [4]) [%] | responders at 60 mg/kg (rats; [5]) [%] | responders at 60 mg/kg (rats; [6]) [%] | % Decrease of the induced edema ([1]; 20 mg/kg p.o.) [%] | responders at 15 mg/kg (rats; [4]) [%] | responders at 15 mg/kg (rats; [5]) [%] | responders at 15 mg/kg (rats; [6]) [%] | responders at 30 mg/kg (rats; [4]) [%] | responders at 30 mg/kg (rats; [5]) [%] | responders at 30 mg/kg (rats; [6]) [%] | influence on the CR and the UR (rats) | responders at 10 mg/kg (rats; [4]) [%] | responders at 10 mg/kg (rats; [5]) [%] | responders at 10 mg/kg (rats; [6]) [%]
1 | CCCCn1c(=O)c2ccccc2c2nc(C)sc21 [5(N-isomer), 4-Butyl-2-methyl-thiazolo[5,4-c]isoquinoline-5(4H)-one] | 28 | 37 | 51 | ≥ 40 | 600 | > 1000 | 50 | 0 | 0 |  |  |  |  |  |  |  |  |  |  | 
2 | CCCCOc1nc2sc(C)nc2c2ccccc12 [5(O-isomer), 5-butoxy-2-methyl-thiazolo[5,4-c]isoquinoline] |  |  |  |  | 600 |  | 50 | 0 | 0 |  |  |  |  |  |  |  |  |  |  | 
3 | Cc1nc2c3ccccc3c(=O)n(C)c2s1 [Example 1, 2,4-Dimethyl-thiazolo[5,4-c]isoquinoline-5(4H)-one] | 38 | 46 | 61 | ≥ 40 |  | > 1000 |  |  |  | 25 |  |  |  |  |  |  |  |  |  | 
4 | CCn1c(=O)c2ccccc2c2nc(C)sc21 [Example 2(N-isomer), 4-Ethyl-2-methyl-thiazolo[5,4-c]isoquinoline-5(4H)-one] |  |  |  |  | 400 |  |  |  |  |  | 50 | 0 | 0 | 80 | 0 | 0 | practically no influence |  |  | 
5 | CCc1nc2c3ccccc3c(=O)n(C)c2s1 [Example 9, 2-Ethyl-4-methyl-thiazolo[5,4-c]isoquinoline-5(4H)-one] | 25 | 31 | 40 | ≥ 40 |  | 1000 |  |  |  |  |  |  |  |  |  |  |  |  |  | 
6 | Cc1nn(C)c2nc(OCCO)c3ccccc3c12 [Example 20, 5-(2-Hydroxyethoxy)-1,3-dimethyl-3H-pyrazolo[3,4-c]isoquinoline] |  |  |  |  | > 600 |  | 90 | 30 | 0 |  |  |  |  | 70 | 30 | 0 | practically no influence | 60 | 10 | 0
7 | CCCCOc1nc2c(c(C)nn2C)c2ccccc12 [Example 24, 5-Butoxy-1,3-dimethyl-3H-pyrazolo[3,4-c]isoquinoline] | 26 | 38 | 45 | ≥ 40 | > 600 | 1000 | 100 | 30 | 0 |  |  |  |  | 60 | 0 | 0 | practically no influence |  |  | 
8 | CCc1nn(C)c2nc(OCCO)c3ccccc3c12 [Example 25, 1-Ethyl-5-hydroxyethoxy-3-methyl-3H-pyrazolo[3,4-c]isoquinoline] |  |  |  |  | > 600 |  | 70 | 0 | 0 |  |  |  |  | 50 | 0 | 0 | practically no influence |  |  | 
9 | CCc1nn(C)c2nc(OCC(C)=O)c3ccccc3c12 [Example 26, 5-Acetylmethoxy-1-ethyl-3-methyl-3H-pyrazolo[3,4-c]isoquinoline] | 30 | 37 | 43 | ≥ 40 | > 600 | > 1000 | 100 | 0 | 0 |  |  |  |  | 50 | 0 | 0 | practically no influence |  |  | 
10 | Cc1nn(C)c2c1c1ccccc1c(=O)n2CCN1CCN(c2ccccc2)CC1.Cl [Example 38, 1,3-Dimethyl-4-[2-(4-phenyl-1-piperazinyl)ethyl]-3H-pyrazolo[3,4-c]isoquinoline-5(4H)-one hydrochloride] |  |  |  |  | > 600 |  | 100 | 40 | 0 |  |  |  |  | 90 | 10 | 0 | practically no influence |  |  | 
